Experimental data taken from US12466822B2, “Heterocyclic compounds as immunomodulators” (Incyte Corporation, priority 2016, dated 2025).

Target: T1, PD-1/PD-L1 protein/protein interaction (recombinant human PD-L1 protein (19-238), recombinant human PD-1 protein (25-167)) (Homo sapiens, UniProt Q9NZQ7)
T1 construct: Recombinant human PD-L1 protein (19-238) with a His-tag at the C-terminus; purchased AcroBiosystems PD1-H5229 (PD-L1-His); PD1-H5257 (PD-1-Fc)
Assay: PD-1/PD-L1 Homogeneous Time-Resolved Fluorescence (HTRF) Binding Assay
Conditions: 25° C., PBS buffer (pH 7.4), 40 minutes preincubation with inhibitors
Protocol: The assays were conducted in a standard black 384-well polystyrene plate with a final volume of 20 μL. Inhibitors were first serially diluted in DMSO and then added to the plate wells before the addition of other reaction components. The final concentration of DMSO in the assay was 1%. The assays were carried out at 25° C. in the PBS buffer (pH 7.4) with 0.05% Tween-20 and 0.1% BSA. Recombinant human PD-L1 protein (19-238) with a His-tag at the C-terminus was purchased from AcroBiosystems (PD1-H5229). Recombinant human PD-1 protein (25-167) with Fc tag at the C-terminus was also purchased from AcroBiosystems (PD1-H5257). PD-L1 and PD-1 proteins were diluted in the assay buffer and 10 μL was added to the plate well. Plates were centrifuged and proteins were preincubated with inhibitors for 40 minutes. The incubation was followed by the addition of 10 μL of HTRF detection buffer supplemented with Europium cryptate-labeled anti-human IgG (PerkinElmer-AD0212) specific for Fc and anti-His antibody conjugated to SureLight®-Allophycocyanin (APC, PerkinElmer-AD0059H). After centrifugation, the plate was incubated at 25° C. for 60 min. before reading on a PHERAstar FS plate reader (665 nm/620 nm ratio). Final concentrations in the assay were […], 10 nM PD-L1, 1 nM europium anti-human IgG and 20 nM anti-His-Allophycocyanin. IC50 determination was performed by fitting the curve of percent control activity versus the log of the inhibitor concentration using the GraphPad Prism 5.0 software.

T1 sequence (Q9NZQ7 19-238): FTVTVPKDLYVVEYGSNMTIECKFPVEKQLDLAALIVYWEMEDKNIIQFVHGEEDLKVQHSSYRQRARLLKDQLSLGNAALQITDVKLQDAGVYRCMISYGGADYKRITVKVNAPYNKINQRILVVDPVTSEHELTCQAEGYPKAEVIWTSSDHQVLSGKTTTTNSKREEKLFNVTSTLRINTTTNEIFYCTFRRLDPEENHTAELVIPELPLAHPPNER

| IC50 [µM] | Compound |
| --- | --- |
| ≤ 0.01 | Cc1c(Nc2nccc3cc(CN4CC[C@H](O)C4)cnc23)cccc1-c1cccc(-c2nc3c(s2)CNCC3)c1C [Example 36, (S)-1-((8-((2,2′-dimethyl-3′-(4,5,6,7-tetrahydrothiazolo[5,4-c]pyridin-2-yl)-[1,1′-biphenyl]-3-yl)amino)-1,7-naphthyridin-3-yl)methyl)pyrrolidin-3-ol] |
| ≤ 0.01 | Cc1c(Nc2nccc3cc(CN4CC[C@@H](O)C4)cnc23)cccc1-c1cccc(Nc2ncnc3cc(CNC[C@H](C)O)cnc23)c1C [Example 27, (R)-1-((8-(3′-(7-(((S)-2-hydroxypropylamino)methyl)pyrido[3,2-d]pyrimidin-4-ylamino)-2,2′-dimethylbiphenyl-3-ylamino)-1,7-naphthyridin-3-yl)methyl)pyrrolidin-3-ol] |
| ≤ 0.01 | Cc1c(NC(=O)c2nc3c(n2C)CCN(C)C3)cccc1-c1cccc(Nc2nccc3cc(CN4CC(C(=O)O)C4)cnc23)c1Cl [Example 14, 1-((8-(2-chloro-3′-(1,5-dimethyl-4,5,6,7-tetrahydro-1H-imidazo[4,5-c]pyridine-2-carboxamido)-2′-methylbiphenyl-3-ylamino)-1,7-naphthyridin-3-yl)methyl)azetidine-3-carboxylic acid] |
| ≤ 0.01 | Cc1c(Nc2nccc3cc(CN4CC[C@@H](O)C4)cnc23)cccc1-c1cccc(Nc2nccc3cc(CN4CC(C(=O)O)C4)cnc23)c1Cl [Example 80, (R)-1-((8-((2-chloro-3′-((3-((3-hydroxypyrrolidin-1-yl)methyl)-1,7-naphthyridin-8-yl)amino)-2′-methyl-[1,1′-biphenyl]-3-yl)amino)-1,7-naphthyridin-3-yl)methyl)azetidine-3-carboxylic acid] |
| ≤ 0.01 | Cc1c(Nc2nccc3cc(CN4CC[C@@](C)(O)C4)cnc23)cccc1-c1cccc(NC(=O)c2nc3c(n2C)CCN(CC[C@H]2CC[C@H](C(=O)O)CC2)C3)c1Cl [Example 61, trans-4-(2-(2-(2-chloro-3′-(3-(((R)-3-hydroxy-3-methylpyrrolidin-1-yl)methyl)-1,7-naphthyridin-8-ylamino)-2′-methylbiphenyl-3-ylcarbamoyl)-1-methyl-6,7-dihydro-1H-imidazo[4,5-c]pyridin-5(4H)-yl)ethyl)cyclohexanecarboxylic acid] |
| ≤ 0.01 | Cc1c(Nc2nccc3cc(CN4CC[C@@H](O)C4)cnc23)cccc1-c1cccc(-c2nc3c(s2)CN(C(=O)CN2CC[C@@H](O)C2)C3)c1C [Example 86, 2-((R)-3-hydroxypyrrolidin-1-yl)-1-(2-(3′-((3-(((R)-3-hydroxypyrrolidin-1-yl)methyl)-1,7-naphthyridin-8-yl)amino)-2,2′-dimethyl-[1,1′-biphenyl]-3-yl)-4,6-dihydro-5H-pyrrolo[3,4-d]thiazol-5-yl)ethan-1-one] |
| ≤ 0.01 | Cc1c(Nc2nccc3cc(CN4CC[C@@](C)(C(=O)O)C4)cnc23)cccc1-c1cccc(NC(=O)c2nc3c(n2C)CCNC3)c1Cl [Example 45, (R)-1-((8-(2′-Chloro-2-methyl-3′-(1-methyl-4,5,6,7-tetrahydro-1H-imidazo[4,5-c]pyridine-2-carboxamido)biphenyl-3-ylamino)-1,7-naphthyridin-3-yl)methyl)-3-methylpyrrolidine-3-carboxylic acid] |
| ≤ 0.01 | Cn1cc(CNCC(C)(C)O)cc(C(=O)Nc2cccc(-c3cccc(Nc4nccc5cc(CN6CC(C(=O)O)C6)cnc45)c3Cl)c2Cl)c1=O [Example 18, 1-((8-(2,2′-dichloro-3′-(5-((2-hydroxy-2-methylpropylamino)methyl)-1-methyl-2-oxo-1,2-dihydropyridine-3-carboxamido)biphenyl-3-ylamino)-1,7-naphthyridin-3-yl)methyl)azetidine-3-carboxylicacid] |
| ≤ 0.01 | Cc1c(Nc2ncnc3cc(CN4CC[C@@H](O)C4)cnc23)cccc1-c1cccc(NC(=O)c2nc3c(n2C)CCN(C2CCC(C)(C(=O)O)CC2)C3)c1Cl (single isomer, unassigned) [Example 68-peak2] |
